# Data taken from patent US20230227769A1, “Means and Methods to Improve Yeast Fermentation Efficiency” (VIB VZW, priority 2020, published 2023).
# Test system: 2G industrial yeast strains MD4 and T18
# Test: Fermentations in lignocellulose hydrolysates spiked with a range of inhibitor concentrations
# Assay type: cell-based, S. cerevisiae
# Details: five lignocellulose hydrolysates spiked with a range of inhibitor concentrations; both strains MD4 and T18
# Method: The medium was spiked with different industrially relevant concentrations of (FIG. 1A, FIG. 1E) HMF, (FIG. 1B, FIG. 1F) furfural, (FIG. 1C, FIG. 1G) formic acid and (FIG. 1D, FIG. 1H) acetic acid.
# As a first step in developing a yeast strain that can cope with the presence of fermentation inhibitors, the level of all relevant inhibitory compounds was measured in five different lignocellulose hydrolysates: two bagasse hydrolysates, two corn cob hydrolysates and one spruce hydrolysate (for composition see Table 2). Fermentations with two 2G industrial yeast strains, MD4 and T18, were performed using these hydrolysates spiked with a range of inhibitor concentrations.
# After preculture of the yeast strains for 48 h at 30° C. with shaking at 200 rpm in YPD2% (10 g/l yeast extract, 20 g/l bacteriological peptone, 2% D-glucose) up to stationary phase, small-scale (10 ml) semi-anaerobic fermentations with MD4 and T18 were performed at pH 5.2, 35° C., shaking at 350 rpm, and a yeast inoculum OD 5.0. Weight loss of the fermentation tubes, which is correlated with CO2 production during conversion of glucose and xylose into ethanol, was measured continuously, or sampling at different timepoints was performed to analyse sugar and inhibitor concentrations by HPLC.
row,SMILES,inhibitory effect on fermentation
1,CC(=O)O [acetic acid],major inhibitors
2,CC(=O)CCC(=O)O [Levulinic acid],smaller inhibitory effect
3,O=C(O)c1ccc(O)cc1 [4-hydroxybenzoic acid],smaller inhibitory effect
4,O=Cc1ccco1 [furfural],major inhibitors
5,COc1cc(C=O)ccc1O [vanillin],smaller inhibitory effect
6,O=Cc1ccc(O)cc1 [4-hydroxybenzaldehyde],smaller inhibitory effect
7,"O=Cc1ccc(CO)o1 [HMF, 5-(hydroxymethyl)furfural]",major inhibitors
8,O=CO [formic acid],major inhibitors
